Consider two compounds from US20170226139A1, “CRYSTALLINE SALTS OF (Z)-O-OCTADEC-9-EN-1-YL O,O-DIHYDROGEN PHOSPHOROTHIOATE” (priority 2013, published 2017).

Where two headings read alike, the source gives them in different places. Some results are limits rather than exact numbers.

In series [1] the test system is male Rhesus macaque Animal Model of GI-ARS. Put plainly: Survival after partial body irradiation, male Rhesus macaque Animal Model of GI-ARS. Format: in vivo. As for the experimental part:
Using a partial body irradiation (tibial sparing) animal model in the female C57BL/6 mice, we tested the survival advantages conferred by GMP Rx100.L-Lysine salt. As a result, when administered at 0.3 to 3 mg/kg/12 h×6 doses starting at +24 hours after exposure to 15.5 to 15.7 Gy from a ^137Cesium irradiator which otherwise reliably produces an LD70-90/10 (in 10 days, 70-90% mice die after irradiation), the mortality was reduced by 20% to 50%. When administered at 0.1 mg/kg/day×6 doses in a partial body irradiation Animal Model in 19 male Rhesus macaque, a 37% increase in survival at a normally LD70/34 dose of X-ray radiation was observed. By allometric scaling using body surface area, these lowest effective doses translate to 0.02 mg/kg/day and to 0.03 mg/kg/day in humans, respectively.
These Animal Model studies were all conducted using partial body irradiation (PBI) with tibial bone marrow sparing except the earliest study which was performed with Total Abdominal Irradiation (TAI). The male Rhesus macaque model was developed by MacVittie. The female inbred murine PBI GI-ARS Animal Model was developed by the inventors. […] Differences in radiation sensitivity by gender in rodent species are well appreciated. We are not aware of PBI GI-ARS models other than these that meet criteria required to conduct a prospective, blinded, controlled, randomized study of efficacy.

Series [2] concerns the target T1, Human LPA4 (Homo sapiens, UniProt Q99677).
T1 construct: expressed in transfected cells; host or cells: CHO
In words: Calcium-mobilization assay (FURA-2), human LPA4 in CHO cells. Format: cell-based. As for the experimental part: (§1) We investigated structure-activity relationships across species, LPAR subtypes and between Rx100 and two known process impurities encountered in manufacture: Rx103 (‘E’ isomer) and Rx200 (oleyl phosphate and impurity, which can be an Rx100 degradant along with oleyl alcohol). Rx100, Rx103, Rx200 and native LPA were investigated at different human LPAR subtypes. In addition, the activity of these compounds was evaluated at LPA2 receptors from the rhesus, rat and mouse species. Human LPA1/2/3 subtypes were transfected into mouse embryonic fibroblasts (MEF) or rat hepatoma cells (RH7777)—both of which are normally non-responsive or null to LPA. Human LPA4 was transfected into Chinese hamster ovary (CHO) cells and LPA5 into the B103 neuroblastoma cell line. […] The B103 rat neuroblastoma cell line is endogenously nonresponsive to LPA but expresses heterologous LPA5 receptors well. […] LPAR activation elicits a G-protein-mediated transient rise in intracellular calcium level that is proportional to the concentration of LPA applied. The intracellular calcium level was quantified by the calcium-selective fluorescent indicator FURA-2 (e.g., increased intracellular calcium surge=increased fluorescence).

Series [3] deals with T2, Human LPA1 (Homo sapiens, UniProt Q92633).
T2 construct: expressed in transfected cells; host or cells: mouse embryonic fibroblasts (MEF)
T2 sequence (Q92633 whole entry): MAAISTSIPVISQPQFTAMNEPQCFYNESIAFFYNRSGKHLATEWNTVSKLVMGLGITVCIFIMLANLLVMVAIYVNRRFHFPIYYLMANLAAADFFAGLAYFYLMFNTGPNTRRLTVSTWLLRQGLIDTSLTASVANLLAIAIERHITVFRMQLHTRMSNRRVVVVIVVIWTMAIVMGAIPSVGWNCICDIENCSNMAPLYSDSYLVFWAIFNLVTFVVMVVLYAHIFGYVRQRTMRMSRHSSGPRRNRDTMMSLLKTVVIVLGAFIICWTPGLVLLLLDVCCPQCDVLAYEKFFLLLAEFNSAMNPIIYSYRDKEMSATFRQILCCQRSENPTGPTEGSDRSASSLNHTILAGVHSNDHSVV
Put plainly: Calcium-mobilization assay (FURA-2), human LPA1 transfected cells. Format: cell-based. The conditions noted are these: for EC50: EC50 [nM], mean. As for the experimental part: as §1

Series [4] deals with Human LPA2 (Homo sapiens, UniProt Q9HBW0). In words: Competition binding assay, displacement of [3H]LPA from membranes of transfected HEK293 cells. Details: expressed in transfected cells; host or cells: HEK293 (crude membrane fraction). The note with it: 20 nM [3H]LPA; membranes of HEK293 cells transfected with human LPA2. As for the experimental part:
A further study was performed to evaluate whether Rx100 displaces lysophosphatidic acid bound to its receptor. HEK293 cells were transfected with human LPA2 receptor.

In series [5] the target is T3, LPA5 (Homo sapiens, UniProt Q9H1C0).
T3 construct: expressed in transfected cells; host or cells: B103 rat neuroblastoma
T3 sequence (Q9H1C0 whole entry): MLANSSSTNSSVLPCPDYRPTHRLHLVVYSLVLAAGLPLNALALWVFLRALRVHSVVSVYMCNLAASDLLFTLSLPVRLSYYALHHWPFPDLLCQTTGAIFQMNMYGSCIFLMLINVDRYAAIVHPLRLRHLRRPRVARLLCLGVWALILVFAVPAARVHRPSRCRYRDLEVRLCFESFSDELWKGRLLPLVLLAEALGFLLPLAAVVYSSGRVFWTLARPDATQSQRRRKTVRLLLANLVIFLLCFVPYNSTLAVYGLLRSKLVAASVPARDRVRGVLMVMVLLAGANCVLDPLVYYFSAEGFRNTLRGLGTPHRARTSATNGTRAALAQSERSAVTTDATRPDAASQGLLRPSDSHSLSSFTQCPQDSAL
In words: Calcium-mobilization assay (FURA-2), LPA5 in B103 neuroblastoma cells. Type of series: cell-based. As for the experimental part:
as §1

A short description of series [6]: Evaporative crystallization tests, XRPD. Format: physicochemical. The conditions noted are these: evaporated to dryness under vacuum at ambient conditions. As for the experimental part: Third, Evaporative Crystallization tests were performed. Based on the short term slurry experiments, all samples which experienced full dissolution were utilized for evaporative crystallizations. Samples were evaporated to dryness under vacuum at ambient conditions.

For series [7], the system named is bone marrow cells (micronucleated PCEs). Put plainly: In vivo rat bone marrow micronucleus assay. Details: species or system Sprague-Dawley rats. The note with it: 500 mg/kg single subcutaneous dose.
In series [8] the test system is Sprague-Dawley rats. Put plainly: Single-dose (and 7-day) subcutaneous toxicity in rats. Format: in vivo. The method, then:
In the second phase of the study, animals (n=3/sex/group) received 25 mg/kg/day for seven consecutive days with injections being rotated between two sites. Parameters evaluated included clinical signs, body weight, and gross pathology.

The test system of series [9] is male telemetered cynomolgus monkeys. Put plainly: Cardiovascular safety pharmacology in telemetered monkeys. The conditions noted are these: SC 0.1, 0.5 and 2.0 mg/kg as the free acid. Format: in vivo. The method, then: Four male telemetered cynomolgus monkeys were selected, and assigned via a Latin Square design to receive four doses of Rx100.lysine or vehicle via subcutaneous injection at doses of 0 (10 mM histidine in sterile water for injection, USP), 0.1, 0.5 and 2.0 mg/kg as the free acid. Parameters evaluated include clinical observations, body temperature, arterial pressure and ECG evaluations (PR, QT, QRS durations). QTc values were calculated based on data collected for each animal.

A short description of series [10]: physchem. The note with it: thermodynamic from solid.
The test system of series [11] is male Sprague Dawley rats. Put plainly: Central nervous system safety pharmacology, modified Irwin battery. Format: in vivo. The note with it: SC 1.81, 6.33 and 18.1 mg/kg; through 24 hours post-dose. The method, then:
Four groups of male Sprague Dawley rats (n=8/group) were administered Rx100.lysine via subcutaneous injection at doses of 0 (10 mM histidine in sterile water for Injection, USP), 1.81, 6.33 and 18.1 mg/kg as the free acid. Animals were assessed pre-dose and through 24 hours post-dose for a variety of behavioral, neurological and autonomic responses using the modified Irwin battery of assessments. Dose formulation analyses were conducted and samples ranged from 99 to 104% of target. The only effect observed was a small (0.8 to 1.5 degrees C.) decrease in body temperature noted at 2-4 hours postdose.

Setting [12] is: UC Davis 2011, Rhesus (♂), 0.1 mg/kg (q24 × 6), start +4, 11.5 Gy, non-GLP.
Setting [13] is: UC Davis 2011, Rhesus (♂), 0.1 mg/kg (q24 × 6), start +4, 11.5 Gy, non-GLP, vs vehicle.

T1 sequence (Q99677 whole entry): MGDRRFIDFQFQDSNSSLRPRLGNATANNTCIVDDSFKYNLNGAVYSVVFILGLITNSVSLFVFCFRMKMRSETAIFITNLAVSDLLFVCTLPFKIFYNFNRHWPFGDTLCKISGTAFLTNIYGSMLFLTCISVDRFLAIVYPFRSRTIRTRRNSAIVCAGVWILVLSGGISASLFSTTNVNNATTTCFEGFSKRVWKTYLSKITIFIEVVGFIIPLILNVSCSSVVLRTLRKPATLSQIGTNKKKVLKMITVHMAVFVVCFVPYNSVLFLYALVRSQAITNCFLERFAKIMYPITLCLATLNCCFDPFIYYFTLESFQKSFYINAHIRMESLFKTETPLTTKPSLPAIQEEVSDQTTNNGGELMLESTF
Human LPA2, sequence (Q9HBW0 whole entry): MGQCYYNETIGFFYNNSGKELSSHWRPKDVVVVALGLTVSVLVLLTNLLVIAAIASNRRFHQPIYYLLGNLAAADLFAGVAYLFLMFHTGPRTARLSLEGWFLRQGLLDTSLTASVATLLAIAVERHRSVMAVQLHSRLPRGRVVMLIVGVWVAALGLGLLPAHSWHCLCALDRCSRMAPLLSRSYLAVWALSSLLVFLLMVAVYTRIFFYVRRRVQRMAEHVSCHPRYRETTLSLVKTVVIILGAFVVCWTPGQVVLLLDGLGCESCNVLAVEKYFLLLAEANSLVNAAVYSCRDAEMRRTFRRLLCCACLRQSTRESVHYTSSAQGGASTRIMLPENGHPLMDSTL

Turning to `CCCCCCCC/C=C\CCCCCCCCOP(O)(O)=S` [Rx100, (Z)—O-octadec-9-en-1-yl O,O-dihydrogen phosphorothioate], in series [1] (setting [12]), the “Survival Day 10, Rx100 arm (survivors/animals)” value is on record as 2/9. In [1] (setting [12]), the “Survival Day ≧30, Rx100 arm (survivors/animals)” value is recorded as 6/9. In series [1] (setting [13]), the “Survival Advantage Day 10” value is on record as 8%. In addition, the “Survival Advantage Day ≧30” value in series [1] (setting [13]) worked out at 37%. Moreover, the concentration giving a half-maximal response (EC50) in [2] was above 5000 nM; in [3] (LPA1 DKO MEF, human), 273 nM; in series [3] (LPA1 RH7777, human) it was 1030 nM; in [5], 100 nM. For the same compound, the maximum response (Emax) in [2] (CHO, read-out: Emax (% of LPA)) was 97%; in series [3] (RH7777, read-out: Emax (% of LPA)) it was 69%; in [3] (read-out: Emax (% of LPA)), 70%; in series [5] (B103, read-out: Emax (% of LPA)), 104%. Besides, the “displacement of 3H-LPA” value in [4] is “displaced 3H-LPA in a concentration-dependent manner”.

In the case of `CCCCCCCC/C=C\CCCCCCCCOP(O)(O)=S` [Rx100.L-Lysine, (Z)—O-octadec-9-en-1-yl O,O-dihydrogen phosphorothioate], the increase in survival in [1] (0.1 mg/kg/day×6 doses, 19 male Rhesus macaque, normally LD70/34 dose of X-ray radiation) came out at 37%. Also, the “Form by XRPD after evaporative crystallization” value in series [6] is “no change in form”. Also, the “Mean % MNPC (±SD) Male” value in series [7] (harvest 24 hour) stood at 0.09%; in series [7] (harvest 48 hour), 0.08%. Besides, in series [7] (harvest 24 hour), the “Mean Ratio PCE:NCE (±SD) Male” value was 0.52. Besides, the necropsy findings result in [8] (Phase I, rats given >50 mg/kg) was “scabs were observed on the skin overlying the injection site”; in series [8] (Phase II, 25 mg/kg/day for seven days) it was “small organ size was noted for the epididymis, prostate, seminal vesicle, and testis of all three males”. For the same compound, the body weight entry in [8] (Phase I, single SC dose >50 mg/kg, first 3 days post-dose) is listed as “transient loss of body weight”; in series [8] (Phase II, 25 mg/kg/day for seven consecutive days) it was “transient body weight loss was followed by rebound”. The skin findings entry in series [8] (Phase I, single SC doses of >10 mg/kg, beginning several days post-dose) is reported as “produced scabs”. The dosing site findings entry in [8] (Phase II, 25 mg/kg/day for seven days, first two dosing sites) is “scabs developed with delayed onset”. Besides, the ECG intervals result in [9] was “no meaningful changes in PR, QRS, QT and QTc”. In [9], the heart rate result is given as “slight dose-dependent increase in heart rate”. For the same compound, the solubility in [10] (simulated formulation solvent, aqueous with cosolvent or surfactant or cyclodextrin) is above 43 mg/mL; in series [10] (water), above 48 mg/mL. The “other parameters of the modified Irwin battery” value in [11] is “No other effects”.
